Laboratory results taken from ChEMBL document CHEMBL3098003, “Structure-based design of 2-aminopyridine oxazolidinones as potent and selective tankyrase inhibitors” (ACS Med Chem Lett, 2013).
Values belong to the compound of their own block, whether it stands above or below them. Calls of active or inactive are those of the source. No cut-off for these calls is given here.

Experiments:
[1] = Oral bioavailability in Sprague-Dawley rat at 2 mg/kg; type: ADME, organism-based; conditions: in vivo
[2] = target: Tyrosine-protein kinase JAK2 (Homo sapiens) (UniProt O60674); experiment: Inhibition of JAK2 (unknown origin) at 1 uM after 1 hr
[3] = Volume of distribution at steady state in Sprague-Dawley rat at 0.5 mg/kg, iv; type: ADME, organism-based; parameters: dose 0.5 mg/kg, route intravenous; conditions: in vivo, read-out: Vdss
[4] = target: Tyrosine-protein kinase Fyn (Homo sapiens) (UniProt P06241); experiment: Inhibition of FYN (unknown origin) at 1 uM after 1 hr
[5] = test system: Salmonella typhimurium; experiment: Genotoxicity in Salmonella typhimurium by microAmes assay in presence of S9 fraction; type: toxicity, organism-based; conditions: salmonella enterica subsp. enterica serovar typhimurium
[6] = target: Epithelial discoidin domain-containing receptor 1 (Homo sapiens) (UniProt Q08345); experiment: Inhibition of DDR1 (unknown origin) at 1 uM after 1 hr relative to control
[7] = target: TGF-beta receptor type-2 (Homo sapiens) (UniProt P37173); experiment: Inhibition of TGFBR2 (unknown origin) at 1 uM after 1 hr
[8] = Half life in CD1 mouse at 30 mg/kg, po; type: ADME, organism-based; parameters: dose 30 mg/kg, route oral; conditions: in vivo
[9] = target: Phosphatidylinositol 4,5-bisphosphate 3-kinase catalytic subunit delta isoform (Homo sapiens) (UniProt O00329); experiment: Inhibition of PIK3CD (unknown origin) at 1 uM after 1 hr
[10] = target: High affinity nerve growth factor receptor (Homo sapiens) (UniProt P04629); experiment: Inhibition of NTRK1 (unknown origin) at 1 uM after 1 hr
[11] = target: Casein kinase I isoform delta (Homo sapiens) (UniProt P48730); experiment: Inhibition of CSNK1D (unknown origin) at 1 uM after 1 hr
[12] = target: Rho-associated protein kinase 2 (Homo sapiens) (UniProt O75116); experiment: Inhibition of ROCK2 (unknown origin) at 1 uM after 1 hr
Chain of Rho-associated protein kinase 2 (Homo sapiens) (O75116 whole entry, looked up): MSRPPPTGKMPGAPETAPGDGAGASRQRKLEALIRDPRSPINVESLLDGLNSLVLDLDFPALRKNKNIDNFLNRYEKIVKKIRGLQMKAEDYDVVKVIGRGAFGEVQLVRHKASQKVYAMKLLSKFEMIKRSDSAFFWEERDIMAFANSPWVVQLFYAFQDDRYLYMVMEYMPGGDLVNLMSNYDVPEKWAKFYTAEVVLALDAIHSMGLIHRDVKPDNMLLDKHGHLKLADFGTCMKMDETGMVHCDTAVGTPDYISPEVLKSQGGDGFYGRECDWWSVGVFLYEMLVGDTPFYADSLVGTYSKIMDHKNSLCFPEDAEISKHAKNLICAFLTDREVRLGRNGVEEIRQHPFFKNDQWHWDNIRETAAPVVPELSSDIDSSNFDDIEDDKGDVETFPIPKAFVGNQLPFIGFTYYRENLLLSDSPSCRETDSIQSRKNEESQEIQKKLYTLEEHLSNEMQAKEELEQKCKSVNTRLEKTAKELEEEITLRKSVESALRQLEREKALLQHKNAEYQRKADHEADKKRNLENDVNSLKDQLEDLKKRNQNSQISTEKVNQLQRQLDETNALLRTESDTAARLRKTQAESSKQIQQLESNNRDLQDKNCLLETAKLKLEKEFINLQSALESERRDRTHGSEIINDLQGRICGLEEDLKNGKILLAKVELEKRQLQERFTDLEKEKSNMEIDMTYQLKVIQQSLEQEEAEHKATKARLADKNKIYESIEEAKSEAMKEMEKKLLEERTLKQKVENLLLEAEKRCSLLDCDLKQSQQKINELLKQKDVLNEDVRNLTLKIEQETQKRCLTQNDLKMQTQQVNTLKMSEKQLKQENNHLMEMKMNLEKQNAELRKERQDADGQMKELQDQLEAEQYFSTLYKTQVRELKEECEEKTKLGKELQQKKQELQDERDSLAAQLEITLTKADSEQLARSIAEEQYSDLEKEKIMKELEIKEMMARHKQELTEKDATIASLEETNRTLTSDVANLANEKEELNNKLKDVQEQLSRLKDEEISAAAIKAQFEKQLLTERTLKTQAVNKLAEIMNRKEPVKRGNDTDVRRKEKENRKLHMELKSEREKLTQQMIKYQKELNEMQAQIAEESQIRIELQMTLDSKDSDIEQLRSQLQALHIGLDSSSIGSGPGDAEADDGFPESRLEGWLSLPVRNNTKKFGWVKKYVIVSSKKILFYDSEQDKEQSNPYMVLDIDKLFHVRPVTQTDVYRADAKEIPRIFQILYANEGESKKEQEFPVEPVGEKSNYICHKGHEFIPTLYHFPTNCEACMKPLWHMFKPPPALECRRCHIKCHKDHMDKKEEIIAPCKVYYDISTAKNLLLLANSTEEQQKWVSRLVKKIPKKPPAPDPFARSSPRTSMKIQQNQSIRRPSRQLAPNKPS

[13] = target: Dual specificity protein kinase CLK4 (Homo sapiens) (UniProt Q9HAZ1); experiment: Inhibition of CLK4 (unknown origin) at 1 uM after 1 hr
Chain of Dual specificity protein kinase CLK4 (Homo sapiens) (Q9HAZ1 whole entry, looked up): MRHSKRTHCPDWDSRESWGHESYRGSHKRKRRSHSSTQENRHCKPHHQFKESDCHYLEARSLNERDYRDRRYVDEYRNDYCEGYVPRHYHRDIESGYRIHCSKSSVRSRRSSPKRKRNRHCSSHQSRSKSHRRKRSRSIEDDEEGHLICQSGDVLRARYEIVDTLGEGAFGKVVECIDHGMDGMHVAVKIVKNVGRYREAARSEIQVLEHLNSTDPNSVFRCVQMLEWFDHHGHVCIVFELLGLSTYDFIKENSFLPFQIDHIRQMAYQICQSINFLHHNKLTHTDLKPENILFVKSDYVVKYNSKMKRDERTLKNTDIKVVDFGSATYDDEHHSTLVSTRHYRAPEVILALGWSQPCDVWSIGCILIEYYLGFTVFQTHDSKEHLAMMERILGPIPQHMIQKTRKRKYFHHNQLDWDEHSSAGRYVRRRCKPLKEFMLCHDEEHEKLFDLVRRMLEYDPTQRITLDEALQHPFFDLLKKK

[14] = AUC in CD1 mouse at 30 mg/kg, po; type: ADME, organism-based; parameters: dose 30 mg/kg, route oral; conditions: plasma
[15] = target: Tyrosine-protein kinase Lck (Homo sapiens) (UniProt P06239); experiment: Inhibition of LCK (unknown origin) at 1 uM after 1 hr
[16] = Clearance in Sprague-Dawley rat at 0.5 mg/kg, iv; type: ADME, organism-based; parameters: dose 0.5 mg/kg, route intravenous; conditions: in vivo
[17] = target: Serine/threonine-protein kinase PLK4 (Homo sapiens) (UniProt O00444); experiment: Inhibition of PLK4 (unknown origin) at 1 uM after 1 hr
Chain of Serine/threonine-protein kinase PLK4 (Homo sapiens) (O00444 whole entry): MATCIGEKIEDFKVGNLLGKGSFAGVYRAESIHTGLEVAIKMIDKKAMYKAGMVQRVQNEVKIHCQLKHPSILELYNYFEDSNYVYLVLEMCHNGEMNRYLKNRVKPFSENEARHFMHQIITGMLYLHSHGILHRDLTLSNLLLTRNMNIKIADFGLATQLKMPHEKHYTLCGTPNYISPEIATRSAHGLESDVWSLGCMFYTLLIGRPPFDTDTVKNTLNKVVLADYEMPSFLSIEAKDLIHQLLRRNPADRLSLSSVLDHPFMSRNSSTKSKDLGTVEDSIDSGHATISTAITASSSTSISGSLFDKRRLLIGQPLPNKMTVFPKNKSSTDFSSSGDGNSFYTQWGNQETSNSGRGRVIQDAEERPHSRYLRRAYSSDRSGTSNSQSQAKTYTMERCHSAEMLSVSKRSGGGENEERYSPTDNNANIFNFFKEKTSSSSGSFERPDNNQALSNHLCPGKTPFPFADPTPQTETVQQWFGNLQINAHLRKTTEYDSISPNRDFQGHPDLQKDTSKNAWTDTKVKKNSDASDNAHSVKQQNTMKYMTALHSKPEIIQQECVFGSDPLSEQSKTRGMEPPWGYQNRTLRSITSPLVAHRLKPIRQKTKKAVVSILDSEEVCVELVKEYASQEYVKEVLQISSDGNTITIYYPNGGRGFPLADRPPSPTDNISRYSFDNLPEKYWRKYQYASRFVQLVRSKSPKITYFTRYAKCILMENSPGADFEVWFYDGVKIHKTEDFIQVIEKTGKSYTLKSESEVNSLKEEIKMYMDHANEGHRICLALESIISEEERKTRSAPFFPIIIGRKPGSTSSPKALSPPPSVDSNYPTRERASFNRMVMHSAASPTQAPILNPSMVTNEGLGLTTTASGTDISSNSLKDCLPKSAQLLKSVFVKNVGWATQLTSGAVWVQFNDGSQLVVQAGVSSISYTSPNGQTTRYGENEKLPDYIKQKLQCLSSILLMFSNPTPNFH

[18] = target: Serine/threonine-protein kinase D2 (Homo sapiens) (UniProt Q9BZL6); experiment: Inhibition of PRKD2 (unknown origin) at 1 uM after 1 hr
[19] = target: Death-associated protein kinase 1 (Homo sapiens) (UniProt P53355); experiment: Inhibition of DAPK1 (unknown origin) at 1 uM after 1 hr
[20] = Half life in Sprague-Dawley rat at 2 mg/kg, po; type: ADME, organism-based; parameters: dose 2 mg/kg, route oral; conditions: in vivo
[21] = target: Ephrin type-B receptor 3 (Homo sapiens) (UniProt P54753); experiment: Inhibition of EPHB3 (unknown origin) at 1 uM after 1 hr
[22] = Cmax in Sprague-Dawley rat at 2 mg/kg, po; type: ADME, organism-based; parameters: dose 2 mg/kg, route oral; conditions: in vivo
[23] = target: Non-receptor tyrosine-protein kinase TYK2 (Homo sapiens) (UniProt P29597); experiment: Inhibition of TYK2 (unknown origin) at 1 uM after 1 hr
[24] = test system: Salmonella typhimurium; experiment: Genotoxicity in Salmonella typhimurium by microAmes assay; type: toxicity, organism-based; conditions: salmonella enterica subsp. enterica serovar typhimurium
[25] = target: Mitogen-activated protein kinase kinase kinase kinase 4 (Homo sapiens) (UniProt O95819); experiment: Inhibition of MAP4K4 (unknown origin) at 1 uM after 1 hr
[26] = Elimination half life in Sprague-Dawley rat at 0.5 mg/kg, iv; type: ADME, organism-based; parameters: dose 0.5 mg/kg, route intravenous; conditions: in vivo, read-out: beta t1/2 (converted)
[27] = target: Calcium/calmodulin-dependent protein kinase type II subunit delta (Homo sapiens) (UniProt Q13557); experiment: Inhibition of CAMK2D (unknown origin) at 1 uM after 1 hr
[28] = target: Homeodomain-interacting protein kinase 1 (Homo sapiens) (UniProt Q86Z02); experiment: Inhibition of HIPK1 (unknown origin) at 1 uM after 1 hr
[29] = AUC in Sprague-Dawley rat at 2 mg/kg, po; type: ADME, organism-based; parameters: dose 2 mg/kg, route oral; conditions: plasma
[30] = target: Proto-oncogene tyrosine-protein kinase Src (Homo sapiens) (UniProt P12931); experiment: Inhibition of SRC (unknown origin) at 1 uM after 1 hr
[31] = target: Poly [ADP-ribose] polymerase 1 (Homo sapiens, UniProt P09874); experiment: Inhibition of PARP1 (unknown origin)
[32] = target: Mitogen-activated protein kinase 14 (Homo sapiens) (UniProt Q16539); experiment: Inhibition of MAPK14 (unknown origin) at 1 uM after 1 hr
Chain of Mitogen-activated protein kinase 14 (Homo sapiens) (Q16539 whole entry): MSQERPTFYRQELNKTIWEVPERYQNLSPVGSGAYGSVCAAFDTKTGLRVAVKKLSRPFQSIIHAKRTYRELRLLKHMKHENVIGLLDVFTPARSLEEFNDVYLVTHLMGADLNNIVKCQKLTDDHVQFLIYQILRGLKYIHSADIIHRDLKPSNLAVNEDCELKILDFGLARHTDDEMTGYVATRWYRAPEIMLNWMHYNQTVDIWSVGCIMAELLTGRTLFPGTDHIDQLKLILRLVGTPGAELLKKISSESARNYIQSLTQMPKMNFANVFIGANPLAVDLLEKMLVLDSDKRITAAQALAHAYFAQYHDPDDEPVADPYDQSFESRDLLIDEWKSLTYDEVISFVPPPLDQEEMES

[33] = target: Serine/threonine-protein kinase 3 (Homo sapiens) (UniProt Q13188); experiment: Inhibition of STK3 (unknown origin) at 1 uM after 1 hr
[34] = target: cAMP-dependent protein kinase catalytic subunit alpha (Homo sapiens) (UniProt P17612); experiment: Inhibition of PRKACA (unknown origin) at 1 uM after 1 hr
[35] = target: Serine/threonine-protein kinase Nek4 (Homo sapiens) (UniProt P51957); experiment: Inhibition of NEK4 (unknown origin) at 1 uM after 1 hr
[36] = target: Tyrosine-protein kinase ABL1 (Homo sapiens) (UniProt P00519); experiment: Inhibition of ABL1 (unknown origin) at 1 uM after 1 hr
Chain of Tyrosine-protein kinase ABL1 (Homo sapiens) (P00519 whole entry): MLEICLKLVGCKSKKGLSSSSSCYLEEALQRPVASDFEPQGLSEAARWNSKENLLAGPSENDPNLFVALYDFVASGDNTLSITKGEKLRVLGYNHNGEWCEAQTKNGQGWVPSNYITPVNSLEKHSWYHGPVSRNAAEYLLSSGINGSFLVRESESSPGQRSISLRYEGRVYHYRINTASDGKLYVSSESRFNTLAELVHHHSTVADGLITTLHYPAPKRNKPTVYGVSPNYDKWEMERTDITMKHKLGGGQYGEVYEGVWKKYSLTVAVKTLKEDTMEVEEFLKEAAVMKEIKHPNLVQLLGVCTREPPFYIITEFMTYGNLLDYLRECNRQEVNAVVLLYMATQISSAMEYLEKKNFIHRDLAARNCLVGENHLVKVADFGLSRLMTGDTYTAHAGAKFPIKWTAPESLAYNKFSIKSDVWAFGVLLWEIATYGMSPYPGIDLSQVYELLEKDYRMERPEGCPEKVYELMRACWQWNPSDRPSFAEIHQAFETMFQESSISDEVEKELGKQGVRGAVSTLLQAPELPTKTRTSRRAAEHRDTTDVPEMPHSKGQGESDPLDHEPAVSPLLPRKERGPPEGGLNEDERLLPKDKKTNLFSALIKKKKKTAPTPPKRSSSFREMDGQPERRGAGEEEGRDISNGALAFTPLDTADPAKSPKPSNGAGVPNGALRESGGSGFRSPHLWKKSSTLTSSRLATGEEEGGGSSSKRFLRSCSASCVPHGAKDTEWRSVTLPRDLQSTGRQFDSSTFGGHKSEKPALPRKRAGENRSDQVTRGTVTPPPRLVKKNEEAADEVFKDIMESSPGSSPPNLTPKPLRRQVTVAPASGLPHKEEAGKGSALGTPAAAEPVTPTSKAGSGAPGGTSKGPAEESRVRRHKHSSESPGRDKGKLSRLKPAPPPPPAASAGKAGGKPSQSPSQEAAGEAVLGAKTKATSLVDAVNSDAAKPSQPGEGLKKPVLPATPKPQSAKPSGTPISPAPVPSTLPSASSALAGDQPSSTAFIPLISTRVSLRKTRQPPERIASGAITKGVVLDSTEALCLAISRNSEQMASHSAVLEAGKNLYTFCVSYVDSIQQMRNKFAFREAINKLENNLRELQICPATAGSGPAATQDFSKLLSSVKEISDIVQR

[37] = Cmax in CD1 mouse at 30 mg/kg, po; type: ADME, organism-based; parameters: dose 30 mg/kg, route oral; conditions: in vivo
[38] = target: Interferon-induced, double-stranded RNA-activated protein kinase (Homo sapiens) (UniProt P19525); experiment: Inhibition of EIF2AK2 (unknown origin) at 1 uM after 1 hr
[39] = target: Ribosomal protein S6 kinase alpha-1 (Homo sapiens) (UniProt Q15418); experiment: Inhibition of RPS6KA1 (unknown origin) at 1 uM after 1 hr
[40] = target: Interleukin-1 receptor-associated kinase 4 (Homo sapiens) (UniProt Q9NWZ3); experiment: Inhibition of IRAK4 (unknown origin) at 1 uM after 1 hr
[41] = target: Mitogen-activated protein kinase kinase kinase 9 (Homo sapiens) (UniProt P80192); experiment: Inhibition of MAP3K9 (unknown origin) at 1 uM after 1 hr
[42] = target: Poly [ADP-ribose] polymerase 2 (Homo sapiens, UniProt Q9UGN5); experiment: Inhibition of PARP2 (unknown origin)
Chain of Poly [ADP-ribose] polymerase 2 (Q9UGN5 whole entry): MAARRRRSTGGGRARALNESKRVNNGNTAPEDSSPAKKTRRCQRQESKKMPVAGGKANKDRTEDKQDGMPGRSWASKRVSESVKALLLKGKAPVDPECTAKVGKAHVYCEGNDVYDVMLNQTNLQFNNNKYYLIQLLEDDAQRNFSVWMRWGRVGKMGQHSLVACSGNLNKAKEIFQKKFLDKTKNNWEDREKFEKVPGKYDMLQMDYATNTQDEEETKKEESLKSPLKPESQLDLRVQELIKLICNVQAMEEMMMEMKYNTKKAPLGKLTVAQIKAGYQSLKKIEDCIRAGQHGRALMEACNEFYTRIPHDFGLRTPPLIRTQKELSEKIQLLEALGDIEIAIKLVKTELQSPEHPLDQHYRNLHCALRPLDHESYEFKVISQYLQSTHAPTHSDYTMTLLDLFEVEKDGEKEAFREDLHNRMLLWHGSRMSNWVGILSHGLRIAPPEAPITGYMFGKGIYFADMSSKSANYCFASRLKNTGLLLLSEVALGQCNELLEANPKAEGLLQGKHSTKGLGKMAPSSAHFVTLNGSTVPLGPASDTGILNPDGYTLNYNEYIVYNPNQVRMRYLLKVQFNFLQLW

[43] = target: Wee1-like protein kinase (Homo sapiens) (UniProt P30291); experiment: Inhibition of WEE1 (unknown origin) at 1 uM after 1 hr
[44] = target: Cyclin-dependent kinase 2 (Homo sapiens) (UniProt P24941); experiment: Inhibition of CDK2 (unknown origin) at 1 uM after 1 hr
[45] = target: Mitogen-activated protein kinase kinase kinase 1 (Homo sapiens) (UniProt Q13233); experiment: Inhibition of MAP3K1 (unknown origin) at 1 uM after 1 hr

Structure (SMILES): CC1(C)OC(=O)N([C@H]2CC[C@H](c3cnc(N)c(-c4ncccn4)c3)CC2)[C@H]1c1ccccc1
bioavailability [1]: 33%
inhibition [2]: inactive
Vd [3]: 2.85 L/kg
inhibition [4]: inactive
Activity [5]: Non-toxic
inhibition [6]: 18%
inhibition [7]: inactive
half-life [8]: 3.5 h
inhibition [9]: inactive
inhibition [10]: inactive
inhibition [11]: inactive
inhibition [12]: inactive
inhibition [13]: inactive
AUC [14]: 36.3 µM·h
inhibition [15]: inactive
clearance [16]: 12.5 mL/min/kg
inhibition [17]: inactive
inhibition [18]: inactive
inhibition [19]: inactive
half-life [20]: 2.9 h
inhibition [21]: inactive
Cmax [22]: 0.45 µM
inhibition [23]: inactive
Activity [24]: Non-toxic
inhibition [25]: inactive
half-life [26]: 3.6 h
inhibition [27]: inactive
inhibition [28]: inactive
AUC [29]: 1.98 µM·h
inhibition [30]: inactive
IC50 [31]: > 85 µM
inhibition [32]: inactive
inhibition [33]: inactive
inhibition [34]: inactive
inhibition [35]: inactive
inhibition [36]: inactive
Cmax [37]: 6.09 µM
inhibition [38]: inactive
inhibition [39]: inactive
inhibition [40]: inactive
inhibition [41]: inactive
IC50 [42]: > 170 µM
inhibition [43]: inactive
inhibition [44]: inactive
inhibition [45]: inactive

bioavailability [1]: 29%
inhibition [2]: inactive
Vd [3]: 2.32 L/kg
inhibition [4]: inactive
inhibition [6]: inactive
inhibition [7]: inactive
half-life [8]: 3.7 h
inhibition [9]: inactive
inhibition [10]: inactive
inhibition [11]: inactive
inhibition [12]: inactive
inhibition [13]: inactive
AUC [14]: 63.3 µM·h
inhibition [15]: inactive
clearance [16]: 8.67 mL/min/kg
inhibition [17]: inactive
inhibition [18]: inactive
half-life [20]: 4.6 h
inhibition [21]: inactive
Cmax [22]: 0.37 µM
inhibition [23]: inactive
inhibition [25]: inactive
half-life [26]: 4.3 h
inhibition [27]: inactive
inhibition [28]: inactive
AUC [29]: 2.71 µM·h
inhibition [30]: inactive
IC50 [31]: > 85 µM
inhibition [32]: inactive
inhibition [33]: inactive
inhibition [34]: inactive
inhibition [35]: inactive
inhibition [36]: inactive
Cmax [37]: 7.88 µM
inhibition [38]: inactive
inhibition [39]: inactive
inhibition [40]: inactive
inhibition [41]: inactive
IC50 [42]: > 170 µM
inhibition [43]: inactive
inhibition [44]: inactive
inhibition [45]: inactive
Structure (SMILES): CC1(C)OC(=O)N(c2ccc(-c3cnc(N)c(-c4ncccn4)c3)cc2)[C@H]1c1ccccc1
Activity [5]: Toxic
inhibition [19]: inactive
Activity [24]: Toxic
